Peptide text beside a SMILES is read from it.
Key:
[1] = molecular target: T1, human sweet taste receptor TAS1R2/TAS1R3 (Homo sapiens, UniProt Q7RTX0+Q8TE23); assay: Calcium mobilization assay in HEK293 Flp-In T-Rex-Gα15Gi3-TAS1R2/TAS1R3 cells (FLIPR, Fluo-4); type: cell-based; conditions: for mode of inhibition by lactisole (shift of dose-response curve), cell experiments: combination with 10, 30, 100 μM lactisole; for time until reaching peak activity after agonist application / time where signal decreased below 50 % of the maximum signal amplitude, after agonist application: counted from agonist application at 20 sec; for time until reaching peak activity after agonist application / time where signal decreased below 50 % of the maximum signal amplitude, after agonist application / time until reaching the peak amplitude / time where signal decreased below 50 % of the maximum signal amplitude / time of signal decay back to baseline / time signal stayed above initial baseline: 1 mM Ace K, 3 mM aspartame, 10 mM cyclamate, 0.3 mM NHDC; for time until reaching the peak amplitude: including 20 sec of baseline monitoring prior to agonist application; for time where signal decreased below 50 % of the maximum signal amplitude: including 20 sec of baseline monitoring; for time of signal decay back to baseline / time signal stayed above initial baseline: raw fluorescence traces; for EC50: w/o lactisole, agonist concentrations on x-axis in mM, 3 independent experiments in duplicates, read-out: EC50 of TAS1R2/TAS1R3 activation (ΔF/F)
T1 construct: expressed in transfected cells; host or cells: HEK293 Flp-In T-Rex cells; Gα15Gi3 and TAS1R2 constitutive, TAS1R3 tetracycline-inducible
T1 sequence (Q8TE23 20-839): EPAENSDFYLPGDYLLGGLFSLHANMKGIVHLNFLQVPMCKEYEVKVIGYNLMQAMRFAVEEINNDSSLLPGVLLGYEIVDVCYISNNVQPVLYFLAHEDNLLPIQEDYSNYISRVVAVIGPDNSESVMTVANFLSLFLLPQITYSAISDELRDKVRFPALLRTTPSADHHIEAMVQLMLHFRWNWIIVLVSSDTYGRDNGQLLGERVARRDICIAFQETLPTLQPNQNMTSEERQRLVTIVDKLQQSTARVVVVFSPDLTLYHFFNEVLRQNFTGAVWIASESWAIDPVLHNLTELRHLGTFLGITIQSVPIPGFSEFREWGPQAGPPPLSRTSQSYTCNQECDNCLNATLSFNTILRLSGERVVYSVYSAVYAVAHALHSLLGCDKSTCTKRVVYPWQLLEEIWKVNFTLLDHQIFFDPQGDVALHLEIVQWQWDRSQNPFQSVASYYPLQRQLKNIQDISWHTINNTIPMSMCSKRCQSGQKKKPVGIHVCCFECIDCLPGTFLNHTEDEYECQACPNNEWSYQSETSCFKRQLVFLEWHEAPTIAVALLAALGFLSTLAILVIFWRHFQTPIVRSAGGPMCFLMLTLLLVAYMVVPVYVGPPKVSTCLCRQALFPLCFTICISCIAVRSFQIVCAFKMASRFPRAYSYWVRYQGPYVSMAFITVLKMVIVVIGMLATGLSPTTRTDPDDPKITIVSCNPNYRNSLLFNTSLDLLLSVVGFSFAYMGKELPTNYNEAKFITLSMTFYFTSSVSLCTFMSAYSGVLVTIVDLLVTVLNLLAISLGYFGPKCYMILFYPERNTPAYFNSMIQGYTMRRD
T1 sequence (Q7RTX0 21-852): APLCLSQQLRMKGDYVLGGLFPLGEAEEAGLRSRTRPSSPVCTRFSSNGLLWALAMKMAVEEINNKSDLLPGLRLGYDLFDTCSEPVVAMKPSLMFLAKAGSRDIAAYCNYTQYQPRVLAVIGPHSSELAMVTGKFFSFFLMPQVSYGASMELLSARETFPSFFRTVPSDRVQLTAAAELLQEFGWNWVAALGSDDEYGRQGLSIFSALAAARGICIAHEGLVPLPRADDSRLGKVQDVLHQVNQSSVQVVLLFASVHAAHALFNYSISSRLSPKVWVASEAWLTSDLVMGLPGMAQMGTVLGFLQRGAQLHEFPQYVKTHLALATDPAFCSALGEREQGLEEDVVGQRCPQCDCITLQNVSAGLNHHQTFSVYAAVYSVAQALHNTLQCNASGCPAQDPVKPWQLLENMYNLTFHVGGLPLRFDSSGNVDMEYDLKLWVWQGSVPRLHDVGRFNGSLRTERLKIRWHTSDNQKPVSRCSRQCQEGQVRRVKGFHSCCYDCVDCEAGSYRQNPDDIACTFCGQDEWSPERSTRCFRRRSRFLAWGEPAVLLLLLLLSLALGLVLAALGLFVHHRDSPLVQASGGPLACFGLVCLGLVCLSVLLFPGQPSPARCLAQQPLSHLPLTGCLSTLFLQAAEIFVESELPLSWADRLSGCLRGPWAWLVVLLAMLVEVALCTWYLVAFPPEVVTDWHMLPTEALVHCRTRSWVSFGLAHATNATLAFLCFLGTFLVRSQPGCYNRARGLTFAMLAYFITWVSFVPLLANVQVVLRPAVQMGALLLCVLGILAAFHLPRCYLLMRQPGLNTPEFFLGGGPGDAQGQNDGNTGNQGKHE
Procedure: For the functional characterization of the human sweet taste receptor, we used HEK293 Flp-In T-Rex cells stably transfected with the G protein chimera Gα15Gi3, and the two subunits of the human sweet taste receptor, TAS1R2 and TAS1R3 ([Galindo-Cuspinera et al., 2006]). The G protein chimera and TAS1R2 subunit are constitutively expressed, whereas the expression of the TAS1R3 subunit is inducible through addition of 0.5 µg/mL tetracycline. The experiments were done exactly as before ([Behrens et al., 2017], [Ben Abu et al., 2021]). Briefly, cells were seeded into 96-well plates (black, flat clear bottom) treated with 10 µg/mL poly-D-lysine and grown in low-glucose DMEM supplemented with 10 % fetal bovine serum, 100 U Penicillin/mL, 0.1 mg/mL Streptomycin, 2 mM L-glutamine, at 37 °C, 5 % CO2, saturated air-humidity overnight. About 24 h before the experiment tetracycline was added to induce TAS1R3 expression. Next, cells were loaded for 1 h with Fluo-4 am in the presence of 2.5 mM probenecid and washed twice with C1-buffer (130 mM NaCl, 5 mM KCl, 10 mM HEPES, 1 mM sodium pyruvate, and 2 mM CaCl2, pH 7.4). Then, plates were placed in a fluorometric imaging plate reader (FLIPR^tetra, Molecular Devices, San Jose, CA, United States) for automated compound application and measurement of fluorescence changes. Fluorescence changes of control wells not induced with tetracycline were subtracted from the data. Next, measurements were corrected for background fluorescence. Dose-response relationships of three independent experiments each performed in duplicates were calculated with SigmaPlot 14.0 software using the function f(x) = min+(max − min)/(1+(x/EC50)^nH).
TI-ratings were recorded and analyzed using the software EyeQuestion® 4.11.74 (Logic8 BV, NL) online and MS Excel 16.0 (Microsoft Corporation, USA). The statistical analysis and graphical representation were performed with GraphPad Prism 9.0 for sensory results and with SigmaPlot 14.0 for cell experiments. To evaluate the sensory dose–response effects of ascending sweetener concentration w/o lactisole, an asymmetrical five-parameter curve (Richard́s five-parameter dose–response curve) was fitted. The data are presented as means ± SEM from at least 16 single evaluations. Statistical significance between the different test compounds and concentration-dependent effects was assessed by two-way ANOVAs with Tukey post hoc test using Graph Pad Prism. The normal distribution of the data sets was checked by evaluation of the kurtosis (between −7 to + 7) and the skewness (between −3 to + 3). Equal variance was tested using Levenés test. In case the assumptions of a normal distribution and equal variance were not met, the non-parametric ANOVA on ranks (Kruskal-Wallis Test) with Dunn's post-hoc test without the calculation of interaction was applied. A Pearson product moment correlation was conducted to investigate relationships between sensory results and cell responses of the tested sweeteners.

sweetness = tested on: sweetness; set-up: method as in Schiffman et al., 1995; conditions: compared to 5 % sucrose; ref Schiffman et al., 1995; cited from earlier work

Structure (SMILES)	mode of inhibition by lactisole (shift of dose-response curve), cell experiments [1]	time until reaching peak activity after agonist application [1] [s]	time where signal decreased below 50 % of the maximum signal amplitude, after agonist application [1] [s]	time until reaching the peak amplitude [1] [s]	time where signal decreased below 50 % of the maximum signal amplitude [1] [s]	time of signal decay back to baseline / time signal stayed above initial baseline [1]	EC50 [1] [mM]	sensory sweetness factor (sweetness)
CC1=CC(=O)NS(=O)(=O)O1 [acesulfame K]	Allosteric inhibition	27	65	47	85	about 3 min	0.36 ± 0.04	–
COC(=O)[C@H](Cc1ccccc1)NC(=O)[C@@H](N)CC(=O)O [aspartame] (H-Asp-Phe-OMe)	Allosteric inhibition	23	73	43	93	≥ 6 min	0.33 ± 0.02	–
COc1ccc(CCC(=O)c2c(O)cc(O[C@@H]3O[C@H](CO)[C@@H](O)[C@H](O)[C@H]3O[C@@H]3O[C@@H](C)[C@H](O)[C@@H](O)[C@H]3O)cc2O)cc1O [NHDC, neohesperidin dihydrochalcone]	competitive inhibition	27	87	47	107	≥ 6 min	0.05 ± 0.01	approximately 900
O=S(=O)(O)NC1CCCCC1 [cyclamate]	competitive inhibition	19	73	39	93	≥ 6 min	1.51 ± 0.11	around 30
